Experimental data taken from ChEMBL document CHEMBL6087397, “H2S-releasing oridonin derivatives with improved antitumor activity by inhibiting the PI3K/AKT pathway” (Bioorg Med Chem, 2024).
Active and inactive are the calls of the source. The rule behind the calls is not given here.

What was measured:
[1] = system: MCF7; assay: Antiproliferative activity against human MCF7 cells assessed as inhibition of cell proliferation incubated for 48 hrs by CCK-8 assay; type: functional, cell-based; conditions: MCF7, 48 h
[2] = system: MCF7; assay: Induction of cell cycle arrest in human MCF7 cells assessed as increase in accumulation of cells at G2/M phase at 10 uM incubated for 48 hrs by PI staining based flow cytometric analysis (reference value: 6.7%); type: functional
[3] = system: MIA PaCa-2; assay: Induction of apoptosis in human MIA PaCa-2 cells assessed as upregulation of Cyt-C expression at 1.25 to 5.0 uM incubated for 48 hrs by Western blotting analysis; type: functional, cell-based; conditions: dose 1.25-5 µM
[4] = system: MCF7; assay: Induction of apoptosis in human MCF7 cells assessed as increase in cleaved caspase-3 level at 1.25 to 5.0 uM incubated for 48 hrs by Western blotting analysis; type: functional, cell-based; conditions: dose 1.25-5 µM
[5] = system: MIA PaCa-2; assay: Induction of mitochondrial dysfunction in human MIA PaCa-2 cells assessed as decrease in ATP level incubated for 48 hrs by ATP assay kit; type: functional, cell-based; conditions: dose 2.5-10 µM
[6] = system: MIA PaCa-2; assay: Induction of apoptosis in human MIA PaCa-2 cells assessed as increase in nuclear fragmentation at 2.5 uM incubated for 48 hrs by Hoechst 33342 staining based fluorescence microscopic analysis; type: functional, cell-based
[7] = system: MCF7; assay: Inhibition of cell migration in human MCF7 cells assessed as wider scratch areas incubated for 48 hrs by scratch assay; type: functional, cell-based; conditions: dose 0.5-1 µM
[8] = system: MIA PaCa-2; assay: Antiproliferative activity against human MIA PaCa-2 cells assessed as inhibition of cell proliferation incubated for 48 hrs by CCK-8 assay; type: functional, cell-based; conditions: MIA PaCa-2, 48 h
[9] = system: MIA PaCa-2; assay: Induction of apoptosis in human MIA PaCa-2 cells assessed as increase in fluorescence intensity at 2.5 uM incubated for 48 hrs by Hoechst 33342 staining based fluorescence microscopic analysis; type: functional, cell-based
[10] = system: MCF7; assay: Induction of apoptosis in human MCF7 cells assessed as late apoptotic cells at 20 uM incubated for 48 hrs by Annexin V-FITC/PI staining based flow cytometric analysis (reference value: 20.2%); type: functional
[11] = system: MCF7; assay: Induction of mitochondrial dysfunction in human MCF7 cells assessed as decrease in ATP level incubated for 48 hrs by ATP assay kit; type: functional, cell-based; conditions: dose 2.5-10 µM
[12] = Toxicity in female BALB/c mouse xenografted with mouse 4T1 cells assessed as morphological change in lung at 10 mg/kg, ip administered every 2 days by H and E staining based analysis; type: organism-based; conditions: in vivo, 48 h
[13] = system: MIA PaCa-2; assay: Inhibition of AKT expression in human MIA PaCa-2 cells at 1.25 to 5.0 uM incubated for 48 hrs by Western blotting analysis; type: functional, cell-based; conditions: dose 1.25-5 µM
[14] = system: MIA PaCa-2; assay: Inhibition of cell migration in human MIA PaCa-2 cells assessed as wider scratch areas at 0.5 to 1.0 uM incubated for 48 hrs by scratch assay; type: functional, cell-based; conditions: dose 0.5-1 µM
[15] = system: MIA PaCa-2; assay: Induction of apoptosis in human MIA PaCa-2 cells assessed as upregulation of cleaved caspase-9 expression at 1.25 to 5.0 uM incubated for 48 hrs by Western blotting analysis; type: functional, cell-based; conditions: dose 1.25-5 µM
[16] = system: MCF7; assay: Induction of cell cycle arrest in human MCF7 cells assessed as increase in accumulation of cells at G2/M phase at 5 uM incubated for 48 hrs by PI staining based flow cytometric analysis (reference value: 6.7%); type: functional
[17] = system: MIA PaCa-2; assay: Inhibition of PI3K expression in human MIA PaCa-2 cells at 1.25 to 5.0 uM incubated for 48 hrs by Western blotting analysis; type: functional, cell-based; conditions: dose 1.25-5 µM
[18] = system: MCF7; assay: Inhibition of cell invasion in human MCF7 cells assessed as decrease in number of invading cells at 0.5 to 1.0 uM incubated for 48 hrs by crystal violet staining based transwell microscopic analysis; type: functional; conditions: dose 0.5-1 µM
[19] = system: MCF7; assay: Induction of mitochondrial apoptosis pathway in human MCF7 cells assessed as downregulation of pro-caspase-9 expression at 1.25 to 5.0 uM incubated for 48 hrs by Western blotting analysis; type: functional, cell-based; conditions: dose 1.25-5 µM
[20] = system: MCF7; assay: Induction of apoptosis in human MCF7 cells assessed as upregulation of Bax/Bcl-2 ratio at 1.25 to 5.0 uM incubated for 48 hrs by Western blotting analysis; type: functional, cell-based; conditions: dose 1.25-5 µM
[21] = system: MCF7; assay: Induction of apoptosis in human MCF7 cells assessed as increase in cleaved caspase-9 level at 1.25 to 5.0 uM incubated for 48 hrs by Western blotting analysis; type: functional, cell-based; conditions: dose 1.25-5 µM
[22] = system: MCF7; assay: Induction of apoptosis in human MCF7 cells assessed as increase in fluorescence intensity at 2.5 uM incubated for 48 hrs by Hoechst 33342 staining based fluorescence microscopic analysis; type: functional, cell-based
[23] = Toxicity in female BALB/c mouse xenografted with mouse 4T1 cells assessed as morphological change in heart at 10 mg/kg, ip administered every 2 days by H and E staining based analysis; type: organism-based; conditions: in vivo, 48 h
[24] = system: MCF7; assay: Induction of apoptosis in human MCF7 cells assessed as increase in nuclear fragmentation at 2.5 uM incubated for 48 hrs by Hoechst 33342 staining based fluorescence microscopic analysis; type: functional, cell-based
[25] = system: MCF7; assay: Induction of apoptosis in human MCF7 cells assessed as early apoptotic cells at 10 uM incubated for 48 hrs by Annexin V-FITC/PI staining based flow cytometric analysis (reference value: 20.2%); type: functional
[26] = system: MIA PaCa-2; assay: Inhibition of cell invasion in human MIA PaCa-2 cells assessed as decrease in number of invading cells at 0.5 to 1.0 uM incubated for 48 hrs by crystal violet staining based transwell microscopic analysis relative to control; type: functional; conditions: dose 0.5-1 µM
[27] = system: MIA PaCa-2; assay: Induction of mitochondrial dysfunction in human MIA PaCa-2 cells assessed as decrease in MMP level at 2.5 to 5.0 uM by measuring green fluorescence incubated for 48 hrs by JC-1 staining based flow cytometric analysis; type: functional, cell-based; conditions: dose 2.5-5 µM
[28] = system: MCF7; assay: Induction of mitochondrial dysfunction in human MCF7 cells assessed as decrease in MMP level at 2.5 to 5.0 uM by measuring green fluorescence incubated for 48 hrs by JC-1 staining based flow cytometric analysis; type: functional, cell-based; conditions: dose 2.5-5 µM
[29] = Toxicity in female BALB/c mouse xenografted with mouse 4T1 cells assessed as change in body weight at 10 mg/kg, ip administered every 2 days; type: organism-based; conditions: in vivo, 48 h
[30] = Toxicity in female BALB/c mouse xenografted with mouse 4T1 cells assessed as morphological change in kidney at 10 mg/kg, ip administered every 2 days by H and E staining based analysis; type: organism-based; conditions: in vivo, 48 h
[31] = system: PANC-1; assay: Antiproliferative activity against human PANC-1 cells assessed as inhibition of cell proliferation incubated for 48 hrs by CCK-8 assay; type: functional, cell-based; conditions: PANC-1, 48 h
[32] = system: MIA PaCa-2; assay: Inhibition of colony formation in human MIA PaCa-2 cells assessed as reduction in number of colonies at 0.5 to 1.0 uM incubated for […] by crystal violet staining based microscopic analysis; type: functional, cell-based; conditions: dose 0.5-1 µM
[33] = system: MCF7; assay: Inhibition of colony formation in human MCF7 cells assessed as reduction in number of colonies at 1.0 to 2.0 uM incubated for […] by crystal violet staining based microscopic analysis; type: functional, cell-based; conditions: dose 1-2 µM
[34] = Toxicity in female BALB/c mouse xenografted with mouse 4T1 cells assessed as morphological change in spleen at 10 mg/kg, ip administered every 2 days by H and E staining based analysis; type: organism-based; conditions: in vivo, 48 h
[35] = system: MIA PaCa-2; assay: Induction of apoptosis in human MIA PaCa-2 cells assessed as upregulation of cleaved PARP expression at 1.25 to 5.0 uM incubated for 48 hrs by Western blotting analysis; type: functional, cell-based; conditions: dose 1.25-5 µM

In the case of `C=C1C(=O)[C@]23[C@H](OC(=O)c4ccc(N=C=S)cc4)[C@H]1CC[C@H]2[C@@]12CO[C@]3(O)[C@@H](O)[C@@H]1C(C)(C)CC[C@@H]2O`, the IC50 [1] is reported as 3.43 µM, the Activity [2] is reported as 14% and the Activity [3] is reported as “Active”. For the same compound, the Activity [4] was “Active”, the Activity [5] was “Dose-dependent-effect” and the Activity [6] was “Active”. The inhibition [7] was “Dose-dependent-effect”, the IC50 [8] was 2.14 µM and the Activity [9] was “Active”. For the same compound, the Activity [10] was 57%, the Activity [11] was “Dose-dependent-effect” and the Activity [12] was “Non-toxic”. The inhibition [13] was “Active”, the inhibition [14] was “Active” and the Activity [15] was “Active”. For the same compound, the Activity [16] was 11.5%, the inhibition [17] was “Active” and the inhibition [18] was “Active”. The Activity [19] was “Active”, the Activity [20] was “Active” and the Activity [21] was “Active”. The Activity [22] was “Active”, the Activity [23] was “Non-toxic” and the Activity [24] was “Active”. For the same compound, the Activity [25] was 37%, the “inhibition (INH)” value [26] was about 70% and the Activity [27] was “Active”. For the same compound, the Activity [28] was “Active”, the Activity [29] was “Non-toxic” and the Activity [30] was “Non-toxic”. For the same compound, the IC50 [31] was 17.7 µM, the inhibition [32] was “Active” and the inhibition [33] was “Active”. For the same compound, the Activity [34] was “Non-toxic” and the Activity [35] was “Active”.
